The test system of assay [1] is Aspergillus fumigatus. Kind of assay: Antifungal activity against Aspergillus fumigatus GIMCC 3.19 assessed as fungal growth inhibition incubated for 24 hrs by two-fold serial dilution method. Type of assay: functional.
The test system of assay [2] is Candida albicans. The assay is described as follows: Antifungal activity against Candida albicans ATCC 76615 assessed as fungal growth inhibition incubated for 24 hrs by two-fold serial dilution method. Type of assay: functional.
The test system of assay [3] is Candida albicans. Kind of assay: Antifungal activity against Fluconazole-resistant Candida albicans ATCC 76615R assessed as fungal growth inhibition. In kind it is functional.
In assay [4] the test system is Cryptococcus neoformans. The assay is described as follows: Antifungal activity against Fluconazole-resistant Cryptococcus neoformans ATCC 32719R assessed as fungal growth inhibition. Type of assay: functional.
In assay [5] the test system is Aspergillus flavus. Kind of assay: Antifungal activity against Aspergillus flavus ATCC 16870 assessed as fungal growth inhibition incubated for 24 hrs by two-fold serial dilution method. Type of assay: functional.
Assay [6] deals with Aspergillus flavus. The assay is described as follows: Antifungal activity against Fluconazole-resistant Aspergillus flavus ATCC 16870R assessed as fungal growth inhibition. Type of assay: functional.
Assay [7] has as its system Cryptococcus neoformans. The assay is described as follows: Antifungal activity against Cryptococcus neoformans ATCC 32719 assessed as fungal growth inhibition incubated for 24 hrs by two-fold serial dilution method. In kind it is functional.
Assay [8] relates to Aspergillus fumigatus. The assay is described as follows: Antifungal activity against Fluconazole-resistant Aspergillus fumigatus GIMCC 3.19R assessed as fungal growth inhibition. In kind it is functional.
Assay [9] is described as follows: Inhibition of Candida tropicalis ATCC 750 chitin synthase using UDP-GlcNAc as substrate incubated for 1 hr by absorbance based assay.
The next assay concerns Candida tropicalis. Kind of assay: Inhibition of Candida tropicalis ATCC 750 chitin synthase using […] as substrate at 300 ug/ml incubated for 1 hr by absorbance based assay relative to control. Conditions: dose 300.0 µg/ml.
The subject of assay [10] is Candida albicans. The assay is described as follows: Antifungal activity against Micafungin-resistant Candida albicans ATCC 76615R assessed as fungal growth inhibition. In kind it is functional.

As a reminder, the MIC is the lowest concentration that inhibits growth of the organism. Usually pIC50 stands for the IC50 on a negative log10 scale, so that one unit is a factor of ten. As a reminder, the inhibition is the relative decrease from the control value, in per cent. The low end stands for a response near the control, the high end for a response far below the control.

SMILES strings stand for the structures. pIC50: −log10 of the molar value. Converted amounts (≈) assume the structure as drawn. *1 amine or outer side, *2 acyl side, *3 side chain or, on linkers, in order; H or OH if unused. Where a SMILES comes first, the peptide text is derived from it. Bridges are numbered along the chain shown (N, C = ends). [ ]: non-standard residue; d: D form. The star is where a group is joined. hTyr(3S-OH,4S-OH,3'-OSO3H) = N[C@H](C(=O)O)[C@H](O)[C@@H](O)c1ccc(O)c(OS(=O)(=O)O)c1; Orn(4R-OH,5R-OH) = O=C([C@H](C[C@@H](O)[C@@H](O)N[*:3])N[*:1])[*:2]; Pro(3S-OH,4S-Me) = C[C@H]1CN[C@H](C(=O)O)[C@H]1O; X1 = CCCCCOc1ccc(-c2cc(-c3ccc(C(=O)*)cc3)no2)cc1; Gln(3R-OH) = NC(=O)C[C@@H](O)[C@H](N)C(=O)O; Hyp = O=C(O)[C@@H]1C[C@@H](O)CN1

With `OC(Cn1cncn1)(Cn1cncn1)c1ccc(F)cc1F` [FLUCONAZOLE], the MIC worked out at 8 µg/mL (≈ 26.1 µM) in the assay on Aspergillus fumigatus [1]; 2 µg/mL (≈ 6.53 µM) in the assay on Candida albicans [2]; 256 µg/mL (≈ 836 µM) in the assay with Candida albicans [3]; 256 µg/mL (≈ 836 µM) in the assay on Cryptococcus neoformans [4]; 4 µg/mL (≈ 13.1 µM) in the assay on Aspergillus flavus [5]; 256 µg/mL (≈ 836 µM) in the assay on Aspergillus flavus [6]. Moreover, the MIC is 4 µg/mL (≈ 13.1 µM) in the assay with Cryptococcus neoformans [7] and 256 µg/mL (≈ 836 µM) in the assay on Aspergillus fumigatus [8].
`O=C(/C=C/C(=O)Nc1ccc2c(c1)C(=O)NC1(CCSC1)N2)Nc1ccccc1` (stereo not drawn): the MIC was 128 µg/mL (≈ 313 µM) in the assay with Aspergillus fumigatus [1], 128 µg/mL (≈ 313 µM) in the assay on Candida albicans [2], 256 µg/mL (≈ 627 µM) in the assay on Aspergillus flavus [5] and 128 µg/mL (≈ 313 µM) in the assay with Cryptococcus neoformans [7]. Moreover, the pIC50 in assay [9] is 2.73. The same compound registered an inhibition with Candida tropicalis of 44.2%.
Regarding `O=C(/C=C/C(=O)Nc1ccc2c(c1)C(=O)NC1(CCCC1)N2)Nc1ccc(F)c(Cl)c1`, the MIC with Aspergillus fumigatus [1], in the assay with Candida albicans [2], in the assay on Aspergillus flavus [5] and with Cryptococcus neoformans [7] was 128 µg/mL (≈ 289 µM) in each case. Also, the inhibition in the assay on Candida tropicalis was 48.2%.
Regarding `O=C(/C=C/C(=O)Nc1ccc2c(c1)C(=O)NC1(CCSC1)N2)Nc1cccc(C(F)(F)F)c1` (stereo not drawn), the MIC in the assay with Aspergillus fumigatus [1] came out at 64 µg/mL (≈ 134 µM); with Candida albicans [2], 128 µg/mL (≈ 269 µM); in the assay with Aspergillus flavus [5], 64 µg/mL (≈ 134 µM); with Cryptococcus neoformans [7], 64 µg/mL (≈ 134 µM). In [9], this compound gave a pIC50 of 3.45. For the same compound, the inhibition in the assay with Candida tropicalis was 58.1%.
For `O=C(/C=C/C(=O)Nc1ccc2c(c1)C(=O)NC1(CCSC1)N2)Nc1ccc(F)c(Cl)c1` (stereo not drawn), the MIC turned out to be 64 µg/mL (≈ 139 µM) in the assay on Aspergillus fumigatus [1], 16 µg/mL (≈ 34.7 µM) with Candida albicans [2], 32 µg/mL (≈ 69.4 µM) in the assay with Aspergillus flavus [5] and 32 µg/mL (≈ 69.4 µM) in the assay with Cryptococcus neoformans [7]. In addition, the pIC50 in assay [9] was 3.57. This compound had an inhibition in the assay with Candida tropicalis of 64.4%.
Consider `O=C(/C=C/C(=O)Nc1ccc2c(c1)C(=O)NC1(CCOC1)N2)Nc1ccc(Cl)cc1` (stereo not drawn), for which the MIC in the assay with Aspergillus fumigatus [1], in the assay with Candida albicans [2], in the assay with Aspergillus flavus [5] and in the assay with Cryptococcus neoformans [7] was 128 µg/mL (≈ 300 µM) each time. The same compound gave an inhibition in the assay with Candida tropicalis of 49.2%.
For `CCCCCOc1ccc(-c2cc(-c3ccc(C(=O)N[C@H]4C[C@@H](O)[C@@H](O)NC(=O)[C@@H]5[C@@H](O)[C@@H](C)CN5C(=O)[C@H]([C@H](O)CC(N)=O)NC(=O)[C@H]([C@H](O)[C@@H](O)c5ccc(O)c(OS(=O)(=O)O)c5)NC(=O)[C@@H]5C[C@@H](O)CN5C(=O)[C@H]([C@@H](C)O)NC4=O)cc3)no2)cc1` [MICAFUNGIN] (X1-[Orn(4R-OH,5R-OH)]T[Hyp][hTyr(3S-OH,4S-OH,3'-OSO3H)][Gln(3R-OH)][Pro(3S-OH,4S-Me)]; lactam 1-C), the MIC with Candida albicans [10] was found to be 256 µg/mL (≈ 202 µM).
Regarding `O=C(/C=C/C(=O)Nc1ccc2c(c1)C(=O)NC1(CCOC1)N2)Nc1ccc(Br)cc1` (stereo not drawn), the minimal inhibitory concentration (MIC) in the assay on Aspergillus fumigatus [1] amounted to 64 µg/mL (≈ 136 µM); in the assay on Candida albicans [2], 32 µg/mL (≈ 67.9 µM); with Aspergillus flavus [5], 64 µg/mL (≈ 136 µM); in the assay on Cryptococcus neoformans [7], 32 µg/mL (≈ 67.9 µM). In the assay on Candida tropicalis, the inhibition was 63.1%.
Regarding `O=C(/C=C/C(=O)Nc1ccc2c(c1)C(=O)NC1(CCCC1)N2)Nc1ccc(Cl)cc1`, the MIC in the assay with Aspergillus fumigatus [1] is 128 µg/mL (≈ 301 µM); with Candida albicans [2], 256 µg/mL (≈ 603 µM); with Aspergillus flavus [5], 128 µg/mL (≈ 301 µM); with Cryptococcus neoformans [7], 128 µg/mL (≈ 301 µM). The same compound showed an inhibition in the assay on Candida tropicalis of 43.1%.
As for `O=C(/C=C/C(=O)Nc1ccc2c(c1)C(=O)NC1(CCSC1)N2)Nc1ccc(Cl)cc1` (stereo not drawn), the MIC is 64 µg/mL (≈ 144 µM) in the assay on Aspergillus fumigatus [1], 64 µg/mL (≈ 144 µM) in the assay with Candida albicans [2], 128 µg/mL (≈ 289 µM) with Aspergillus flavus [5] and 64 µg/mL (≈ 144 µM) in the assay on Cryptococcus neoformans [7]. The pIC50 in [9] was 3.36. In addition, the inhibition in the assay with Candida tropicalis worked out at 58%.
In the case of `O=C(/C=C/C(=O)Nc1ccc2c(c1)C(=O)NC1(CCOC1)N2)Nc1ccc(F)c(Cl)c1` (stereo not drawn), the MIC came out at 64 µg/mL (≈ 144 µM) with Aspergillus fumigatus [1], 128 µg/mL (≈ 288 µM) with Candida albicans [2], 64 µg/mL (≈ 144 µM) in the assay with Aspergillus flavus [5] and 128 µg/mL (≈ 288 µM) in the assay on Cryptococcus neoformans [7]. For the same compound, the inhibition in the assay on Candida tropicalis was found to be 56.8%.

The values are drawn from ChEMBL document CHEMBL5365394, “Design, synthesis and biological evaluation of novel spiro-quinazolinone derivatives as chitin synthase inhibitors and antifungal agents” (Eur J Med Chem, 2023).
